# Measurements: US7468366B2, “Cytotoxic agents” (Rutgers, The State University of New Jersey, priority 2001, dated 2008)
row,Compound,melting point
1,"COc1cc2c(cc1OC)-c1cnc3cc4c(cc3c1OC2)OCO4 [Example 12, 8,9-Dimethoxy-2,3-methylenedioxy-6H-5-oxa-12-aza-chrysene]",239 to 242 °C (dec.)
2,"CCCCn1c(=O)c2cc(OC)c(OC)cc2c2cnc3cc4c(cc3c21)OCO4 [Example 11, 8,9-Dimethoxy-2,3-methylenedioxy-5-(butyl)-5H-dibenzo[c,h]1,6-naphthyridin-6-one]",224 °C (dec.)
3,"CCCCn1c(=O)c2cc(OC)c(OC)cc2c2nnc3cc4c(cc3c21)OCO4 [Example 10, 2,3-Dimethoxy-8,9-methylenedioxy-11-(n-butyl)-11H-5,6,11-triazachrysen-12-one]",299 °C
